# In patent US7772271B2 (priority 2004, dated 2010):
row,melting point,SMILES
1,199 to 200 °C,COCCOc1ccc2c(C#N)c(-c3ccc(C(=O)NC4CCC4)cc3)n(C3CCC3)c2c1 [Compound 2759]
2,228 to 230 °C,COCCOc1ccc2c(C#N)c(-c3ccc(C(=O)NC4CC4)cc3)n(C3CCC3)c2c1 [Compound 2760]
3,155 to 156 °C,CCNC(=O)Oc1ccc(-c2c(C#N)c3ccc(OC4CCOCC4)cc3n2CC2CC2)cc1 [Compound 2780]
4,147 to 148 °C,CCCNC(=O)Oc1ccc(-c2c(C#N)c3ccc(OC4CCOCC4)cc3n2CC2CC2)cc1 [Compound 2781]
5,161 to 163 °C,CC(C)NC(=O)Oc1ccc(-c2c(C#N)c3ccc(OC4CCOCC4)cc3n2CC2CC2)cc1 [Compound 2782]
6,146 to 147 °C,CCCCNC(=O)Oc1ccc(-c2c(C#N)c3ccc(OC4CCOCC4)cc3n2CC2CC2)cc1 [Compound 2783]
7,169 to 171 °C,N#Cc1c(-c2ccc(OC(=O)NC3CCCC3)cc2)n(CC2CC2)c2cc(OC3CCOCC3)ccc12 [Compound 2784]
8,158 to 160 °C,N#Cc1c(-c2ccc(OC(=O)NC3CCCCC3)cc2)n(CC2CC2)c2cc(OC3CCOCC3)ccc12 [Compound 2785]
9,183 to 185 °C,CC(C)NS(=O)(=O)Nc1ccc(-c2c(C#N)c3ccc(OC4CCOCC4)cc3n2C2CCC2)cc1 [Compound 2786]
10,133 to 134 °C,N#Cc1c(-c2ccc(OC[C@H]3CCCO3)cc2)n(CC2CC2)c2cc(OC3CCOCC3)ccc12 [Compound 2789]
11,188 to 189 °C,N#Cc1c(-c2ccc(OC(=O)N3CCOCC3)cc2)n(CC2CC2)c2cc(OC3CCOCC3)ccc12 [Compound 2790]
12,205 to 207 °C,CCNC(=O)Oc1ccc(-c2c(C#N)c3ccc(OC4CCOCC4)cc3n2C2CCC2)cc1 [Compound 2807]
13,153 to 154 °C,CCCNC(=O)Oc1ccc(-c2c(C#N)c3ccc(OC4CCOCC4)cc3n2C2CCC2)cc1 [Compound 2808]
14,185 to 186 °C,CC(C)NC(=O)Oc1ccc(-c2c(C#N)c3ccc(OC4CCOCC4)cc3n2C2CCC2)cc1 [Compound 2809]
15,137 to 138 °C,CCCCNC(=O)Oc1ccc(-c2c(C#N)c3ccc(OC4CCOCC4)cc3n2C2CCC2)cc1 [Compound 2810]
16,168 to 169 °C,N#Cc1c(-c2ccc(OC(=O)NC3CCCC3)cc2)n(C2CCC2)c2cc(OC3CCOCC3)ccc12 [Compound 2811]
17,187 to 188 °C,N#Cc1c(-c2ccc(OC(=O)NC3CCCCC3)cc2)n(C2CCC2)c2cc(OC3CCOCC3)ccc12 [Compound 2812]
18,178 to 179 °C,N#Cc1c(-c2ccc(OC(=O)N3CCOCC3)cc2)n(C2CCC2)c2cc(OC3CCOCC3)ccc12 [Compound 2814]
19,179 to 181 °C,N#Cc1c(-c2ccc(OC(=O)N3CCCC3)cc2)n(C2CCC2)c2cc(OC3CCOCC3)ccc12 [Compound 2815]
20,137 to 138 °C,CCN(CC)C(=O)Oc1ccc(-c2c(C#N)c3ccc(OC4CCOCC4)cc3n2C2CCC2)cc1 [Compound 2816]
21,185 to 187 °C,CC(C)Nc1ccc(-c2c(C#N)c3ccc(O[C@@H]4CCOC4)cc3n2C2CC2)cc1 [Compound 2818]
22,218 to 220 °C,CNS(=O)(=O)Nc1ccc(-c2c(C#N)c3ccc(OC4CCOCC4)cc3n2C2CCC2)cc1 [Compound 2833]
23,199 to 201 °C,CCNS(=O)(=O)Nc1ccc(-c2c(C#N)c3ccc(OC4CCOCC4)cc3n2C2CCC2)cc1 [Compound 2834]
24,196 to 198 °C,CC[C@H](C)NS(=O)(=O)Nc1ccc(-c2c(C#N)c3ccc(OC4CCOCC4)cc3n2C2CCC2)cc1 [Compound 2835]
25,193 to 195 °C,CCC(CC)NS(=O)(=O)Nc1ccc(-c2c(C#N)c3ccc(OC4CCOCC4)cc3n2C2CCC2)cc1 [Compound 2836]
26,210 to 212 °C,N#Cc1c(-c2ccc(NS(=O)(=O)NCC3CC3)cc2)n(C2CCC2)c2cc(OC3CCOCC3)ccc12 [Compound 2837]

# The remaining lines, values behind:
row,SMILES,melting point
1,COCCOc1ccc2c(C#N)c(-c3ccc(C(=O)N4CCCC4)cc3)n(C3CCC3)c2c1 [Compound 2756],162 to 164 °C
2,COCCOc1ccc2c(C#N)c(-c3ccc(C(=O)N4CCCCC4)cc3)n(C3CCC3)c2c1 [Compound 2757],155 to 158 °C
3,COCCOc1ccc2c(C#N)c(-c3ccc(C(=O)NC4CCCC4)cc3)n(C3CCC3)c2c1 [Compound 2758],194 to 196 °C
4,Cc1nccc(Oc2ccc3c(C#N)c(-c4ccc(NC(=O)NC(C)C)cc4)n(C4CCC4)c3c2)n1 [Compound 2761],240 to 245 °C
5,CC(C)NC(=O)Nc1ccc(-c2c(C#N)c3ccc(Oc4ccc(Cl)nn4)cc3n2C2CCC2)cc1 [Compound 2762],264 to 269 °C
6,CC(C)(C)OC(=O)Nc1ccc(-c2c(C#N)c3ccc(N4CCOCC4)cc3n2C2CCC2)cc1 [Compound 2764],218 to 220 °C
7,N#Cc1c(-c2ccc(NS(=O)(=O)C3CC3)cc2)n(CC2CC2)c2cc(OC3CCOCC3)ccc12 [Compound 2768],99 to 102 °C
8,N#Cc1c(-c2ccc(NS(=O)(=O)C3CC3)cc2)n(C2CCC2)c2ccc(OC3COCOC3)cc12 [Compound 2775],199 to 203 °C
9,CCCS(=O)(=O)Nc1ccc(-c2c(C#N)c3cc(OC4COCOC4)ccc3n2C2CCC2)cc1 [Compound 2776],183 to 184 °C
10,CC(C)(C)OC(=O)Nc1ccc(-c2c(C#N)c3ccc(N4CCSCC4)cc3n2C2CCC2)cc1 [Compound 2777],191 °C (dec.)
11,C[C@@H](OC(=O)Nc1ccc(-c2c(C#N)c3ccc(C(=O)O)cc3n2C2CCC2)cc1)C1CC1 [Compound 2778],222 to 225 °C
12,CCOC(CCOc1ccc2c(C#N)c(-c3ccc(NC(=O)OC(C)C)cc3)n(C3CCC3)c2c1)OCC [Compound 2779],146 to 150 °C
13,C[C@@H](OC(=O)Nc1ccc(-c2c(C#N)c3ccc(C(=O)N4CCCCC4)cc3n2C2CCC2)cc1)C1CC1 [Compound 2787],148 to 150 °C
14,C[C@@H](OC(=O)Nc1ccc(-c2c(C#N)c3ccc(C(=O)N4CCCC4)cc3n2C2CCC2)cc1)C1CC1 [Compound 2788],124 to 127 °C
15,COCCN(C)C(=O)c1ccc2c(C#N)c(-c3ccc(NC(=O)O[C@H](C)C4CC4)cc3)n(C3CCC3)c2c1 [Compound 2791],96 to 98 °C
16,COCCCNC(=O)c1ccc2c(C#N)c(-c3ccc(NC(=O)O[C@H](C)C4CC4)cc3)n(C3CCC3)c2c1 [Compound 2792],90 to 94 °C
17,C[C@@H](OC(=O)Nc1ccc(-c2c(C#N)c3ccc(C(=O)N4CCSCC4)cc3n2C2CCC2)cc1)C1CC1 [Compound 2793],148 to 151 °C
18,COCCN(CCOC)C(=O)c1ccc2c(C#N)c(-c3ccc(NC(=O)O[C@H](C)C4CC4)cc3)n(C3CCC3)c2c1 [Compound 2794],75 to 77 °C
19,C[C@@H](OC(=O)Nc1ccc(-c2c(C#N)c3cc(OCC4COCO4)ccc3n2C2CCC2)cc1)C(F)(F)F (some centres unmarked) [Compound 2799],162 to 169 °C
20,CC(C)S(=O)(=O)Nc1ccc(-c2c(C#N)c3ccc(N4CCOCC4)cc3n2C2CCC2)cc1 [Compound 2801],220 °C

row,SMILES,melting point
1,N#Cc1c(-c2ccc(NS(=O)(=O)C3CC3)cc2)n(C2CCC2)c2cc(N3CCOCC3)ccc12 [Compound 2802],222 to 224 °C
2,CCCS(=O)(=O)Nc1ccc(-c2c(C#N)c3ccc(N4CCOCC4)cc3n2C2CCC2)cc1 [Compound 2803],203 to 204 °C
3,N#Cc1c(-c2ccc(NC(=O)O[C@@H](c3ccccc3)C(F)(F)F)cc2)n(C2CCC2)c2cc(OCC3OCCO3)ccc12 [Compound 2805],174 to 175 °C
4,N#Cc1c(-c2ccc(NC(=O)O[C@H](c3ccccc3)C(F)(F)F)cc2)n(C2CCC2)c2cc(OCC3OCCO3)ccc12 [Compound 2806],175 to 176 °C
5,CC(C)NC(=O)Nc1ccc(-c2c(C#N)c3cc(OC4COCOC4)ccc3n2C2CCC2)cc1 [Compound 2817],179 to 181 °C
6,C[C@@H](NC(=O)Nc1ccc(-c2c(C#N)c3ccc(Oc4ncccn4)cc3n2C2CCC2)cc1)c1ccc(F)cc1 [Compound 2819],150 °C (dec.)
7,C[C@H](NC(=O)Nc1ccc(-c2c(C#N)c3ccc(Oc4ncccn4)cc3n2C2CCC2)cc1)c1ccc(F)cc1 [Compound 2820],152 °C (dec.)
8,COCCN(C)C(=O)c1ccc2c(C#N)c(-c3ccc(NS(=O)(=O)C4CC4)cc3)n(C3CCC3)c2c1 [Compound 2824],201 to 203 °C
9,N#Cc1c(-c2ccc(NS(=O)(=O)C3CC3)cc2)n(C2CCC2)c2cc(C(=O)N3CCOCC3)ccc12 [Compound 2825],125 to 128 °C
10,N#Cc1c(-c2ccc(NS(=O)(=O)C3CC3)cc2)n(C2CCC2)c2cc(C(=O)N3CCSCC3)ccc12 [Compound 2826],205 to 207 °C
11,C[C@@H](OC(=O)Nc1ccc(-c2c(C#N)c3ccc(OCCn4ccnc4)cc3n2C2CC2)cc1)c1ccc(F)cc1 [Compound 2828],225 to 230 °C
12,C[C@@H](OC(=O)Nc1ccc(-c2c(C#N)c3cc(N4CCOCC4)ccc3n2C2CCC2)cc1)c1ccc(F)cc1 [Compound 2829],163 to 168 °C
13,C[C@@H](OC(=O)Nc1ccc(-c2c(C#N)c3ccc(OCCCCn4cncn4)cc3n2C2CCC2)cc1)C(F)(F)F [Compound 2830],161 to 162 °C
14,C[C@@H](OC(=O)Nc1ccc(-c2c(C#N)c3cc(N4CCOCC4)ccc3n2C2CCC2)cc1)C(F)(F)F [Compound 2832],197 to 202 °C
15,CCn1ccnc1CCOc1ccc2c(C#N)c(-c3ccc(NC(=O)OC(C)C)cc3)n(C3CCC3)c2c1 [Compound 2842],203 to 212 °C
16,COCCOc1ccc2c(C#N)c(-c3ccc(C(=O)NCCN4CCOCC4)cc3)n(C3CCC3)c2c1 [Compound 2844],169 to 170 °C
17,N#Cc1c(-c2ccc(NC(N)=S)cc2)n(C2CCC2)c2cc(OC3COCOC3)ccc12 [Compound 2846],202 to 204 °C
18,CC(C)S(=O)(=O)Nc1ccc(-c2c(C#N)c3cc(Oc4ncccn4)ccc3n2C2CCC2)cc1 [Compound 2848],206 to 207 °C
19,CC(C)NC(=O)Nc1ccc(-c2c(C#N)c3cc(Oc4ncccn4)ccc3n2C2CCC2)cc1 [Compound 2851],140 to 145 °C
